The values that follow come from patent publication US8399689B2, “Chrysophaentin antimicrobial compounds that inhibit FtsZ protein” (The United States of America, as represented by the …, priority 2010, dated 2013).

Values after ≈ are worked out from the molar mass of the structure shown. Where two headings read alike, the source gives them in different places. Some results are limits rather than exact numbers.

The test system of test [1] is Staphylococcus aureus (SA, ATCC 25923). The experiment in a line: Agar disk diffusion assay, S. aureus. It is filed as cell-based. The note with it: Lowest concentrations leading to 8-10 mm zones of inhibition. As to the method:
(§1) Compounds 1-8 were tested for antimicrobial activity against Staphylococcus aureus (SA, ATCC 25923), methicillin-resistant S. aureus (MRSA, ATCC BAA-41), multidrug-resistant S. aureus (MDRSA, ATCC BAA-44), Enterococcus faecium (EF, ATCC 49032), vancomycin-resistant E. Faecium (VRE, ATCC 700221), and Bacillus subtilis (ATCC 49343) using a modified disk diffusion assay and microbroth liquid dilution assays. For disk diffusion assays, agar plates seeded with suspensions of bacteria were prepared by adding 500 μL of a 24 h culture of bacteria to 100 mL of autoclaved Mueller Hinton II agar and cooled to 55° C. Seeded liquid agar (10 mL) was transferred immediately to square Petri dishes and allowed to cool for 1 h. Control drugs used for each microorganism included kanamycin (50 μg) for S. aureus, and nitrofurantoin (25 μg) for MRSA. Following incubation at 37° C. for 18 h, zones of inhibition were measured. MICso values for compounds 1 and 4-8 were determined using a microbroth dilution assay outlined in the Clinical and Laboratory Standards Institute methods for susceptibility tests for bacteria that grow aerobically. Briefly, single bacterial colonies were used to inoculate 4 mL of Trypticase Soy broth (BD) for overnight growth and inoculum for each were diluted to 5×10^5 CFU/mL using the 0.5 McFarland standard. In a 96 well plate (Costar, round bottom), control antibiotics (oxacillin for SA and MRSA, vancomycin for EF and VRE, chloramphenicol for B. subtilis) or natural product inhibitors were added to Muller Hinton II broth (for S. aureus, MRSA, and B. subtilis) or 10% brain heart infusion broth (for E. faecium and VRE) in the first column of the well plates, and serially diluted across the plate, reserving wells for a positive growth control (no treatment). 10 μL of diluted bacteria were added to all wells with the exception of those kept for broth blanks (MHII or brain heart infusion broth only). Plates were incubated at 37° C. overnight and read at absorbance 600 nm on a Molecular Devices plate reader. Growth curves were plotted and ICso values obtained using Kalidagraph software.
(In general: In agar diffusion tests the substance spreads into inoculated agar from a disc or well.)

The test system of test [2] is methicillin-resistant S. aureus (MRSA, ATCC BAA-41). Put plainly: Agar disk diffusion assay, MRSA. In kind it is cell-based, Staphylococcus aureus. To be noted: Lowest concentrations leading to 8-10 mm zones of inhibition. As to the method:
as §1

Test [3] has as its system Enterococcus faecium (EF, ATCC 49032). The experiment in a line: Agar disk diffusion assay, E. faecium. It is filed as cell-based. The note with it: Lowest concentrations leading to 8-10 mm zones of inhibition. As to the method: as §1
Test [4] relates to vancomycin-resistant E. Faecium (VRE, ATCC 700221). Put plainly: Agar disk diffusion assay, VREF. In kind it is cell-based, Enterococcus faecium. The note with it: Lowest concentrations leading to 8-10 mm zones of inhibition. As to the method:
as §1

Test [5] concerns Staphylococcus aureus (SA, ATCC 25923). Put plainly: Microbroth dilution assay, S. aureus. It is filed as cell-based. The note with it: for MIC50: Staphylococcus aureus. As to the method:
as §1
A general note: Dilution methods test growth across graded concentrations, often in twofold steps.

Test [6] deals with methicillin-resistant S. aureus (MRSA, ATCC BAA-41). Put plainly: Microbroth dilution assay, MRSA. To be noted: for MIC50: Staphylococcus aureus, read-out: MIC50 (μg/mL) MRSA. In kind it is cell-based, Staphylococcus aureus. The method, then: as §1
Test [7] concerns Enterococcus faecium (EF, ATCC 49032). The experiment in a line: Microbroth dilution assay, E. faecium. It is filed as cell-based. To be noted: concentration at which growth is reduced by 50%; for MIC50: Enterococcus faecium, ATCC49032, microbroth dilution, read-out: MIC50 (μg/mL) E. faecium. As to the method:
as §1

Test [8] deals with vancomycin-resistant E. Faecium (VRE, ATCC 700221). Put plainly: Microbroth dilution assay, VREF. It is filed as cell-based, Enterococcus faecium. The note with it: for MIC50: Enterococcus faecium, read-out: MIC50 (μg/mL) VREF. The method, then:
as §1

The subject of test [9] is Gram-positive pathogens (S. aureus, B. subtilis, E. faecium, MRSA, MDRSA, VREF). The experiment in a line: Disk diffusion and microbroth dilution assays, strains taken together. In kind it is cell-based.
From the text: Solid agar disk diffusion and microbroth dilution assays were used to evaluate the antimicrobial activities of compounds 1, hexaacetate 1a, and 4-8 toward clinically relevant, Gram-positive pathogens, including the drug-susceptible bacteria Staphylococcus aureus, Bacillus subtilis and Enterococcus faecium, and drug-resistant strains methicillin-resistant S. aureus (MRSA), multidrug-resistant S. aureus (MDRSA), and vancomycin-resistant E. faecium (VREF) (see Table 7, Example 2).
as §1, with “In a 96 well plate (Costar, round bottom), control antibiotics (oxacillin for SA and MRSA, vancomycin for EF and VRE, chloramphenicol for B. subtilis) or natural product inhibitors were added to Muller Hinton II broth (for S. aureus, MRSA, and B. subtilis) or 10% brain heart infusion broth (for E. faecium and VRE) in the first column of the well plates, and serially diluted across the plate, reserving wells for a positive growth control (no treatment). 10 μL of diluted bacteria were added to all wells with the exception of those kept for broth blanks (MHII or brain heart infusion broth only).” left out, “Growth curves were plotted and ICso values obtained using Kalidagraph software.” left out

Test [10] concerns tubulin. Put plainly: Tubulin polymerization assay. It is filed as biochemical. To be noted: chrysophaentin 1 at 150 μM; paclitaxel, nocodazole at standardized concentrations.
[11] abbreviates: ATCC25923, microbroth dilution, concentration at which growth is reduced by 50%, read-out: MIC50 (μg/mL) S. aureus.
[12] abbreviates: microbroth dilution, concentration at which growth is reduced by 50%.
The mark [13] stands for this setting: ATCC25923, read-out: MIC50 (μg/mL) S. aureus.

For the compound `Oc1cc(O)c2c(c1)C/C(Cl)=C\Cc1cc(c(Br)cc1O)Oc1c(O)cc(cc1O)C/C(Cl)=C\Cc1cc(c(Br)cc1O)O2` [Compound 4, chrysophaentin 4], in test [1], the “Agar disk diffusion (μg/disk) S. aureus” value turned out to be 25 μg/disk. Moreover, the “Agar disk diffusion (μg/disk) MRSA” value in [2] is reported as 25 μg/disk. For the same compound, the “Agar disk diffusion (μg/disk) E. faecium” value in [3] was 25 μg/disk. The “Agar disk diffusion (μg/disk) VREF” value in test [4] amounted to 25 μg/disk. Also, the MIC50 is above 25 µg/mL in test [5] (setting [11]), 19 ± 5.9 µg/mL (≈ 24.8 µM) in test [6] (setting [12]), above 50 µg/mL in [7] and above 25 µg/mL in test [8] (setting [12]). Also, the “fold change in MIC50 versus chrysophaentin 1” value in test [9] (all four strains) is reported as around 12 fold.

For the compound `Oc1cc(O)cc(C/C(Cl)=C\Cc2cc(Oc3c(O)cc(C/C(Cl)=C\Cc4cc(O)c(Cl)cc4O)cc3O)c(Cl)cc2O)c1` [Compound 5, chrysophaentin 5], in [1], the “Agar disk diffusion (μg/disk) S. aureus” value turned out to be 25 μg/disk. Moreover, the “Agar disk diffusion (μg/disk) MRSA” value in test [2] was 10 μg/disk. In addition, the “Agar disk diffusion (μg/disk) E. faecium” value in test [3] worked out at 25 μg/disk. Moreover, the “Agar disk diffusion (μg/disk) VREF” value in test [4] is listed as 25 μg/disk. Moreover, the MIC50 in test [5] (setting [13]) is 10.5 ± 3.8 µg/mL (≈ 15.4 µM); in test [6] (setting [12]) it was 8.9 ± 2.8 µg/mL (≈ 13.1 µM); in test [7], above 25 µg/mL; in test [8] (setting [12]), above 25 µg/mL. In test [7] (microbroth dilution), the “MIC50 (μg/mL) E. faecium” value was above 25 µg/mL. Besides, the “MIC50 (μg/mL) VREF” value in test [8] (setting [12]) was above 25 µg/mL.

In the case of `Oc1cc(Cl)c2cc1C/C=C(/Cl)Cc1cc(O)c(c(O)c1)Oc1cc(c(O)cc1Cl)C/C=C(/Cl)Cc1cc(O)c(c(O)c1)O2` [Compound 6, chrysophaentin 6], the “Agar disk diffusion (μg/disk) S. aureus” value in test [1] was 10 μg/disk. The “Agar disk diffusion (μg/disk) MRSA” value in test [2] is 10 μg/disk. For the same compound, in [3], the “Agar disk diffusion (μg/disk) E. faecium” value came to 10 μg/disk. In addition, the “Agar disk diffusion (μg/disk) VREF” value in [4] is 10 μg/disk. Also, the MIC50 in test [5] (setting [11]) is 4 to 6 µg/mL (≈ 5.9 to 8.85 µM); in [6] (setting [12]), 4 to 6 µg/mL (≈ 5.9 to 8.85 µM); in [7], above 25 µg/mL; in test [8] (setting [12]), around 9.5 µg/mL (≈ 14 µM). Moreover, the “MIC50 (μg/mL) S. aureus” value in [5] (setting [12]) is 5.3 ± 1.9 µg/mL (≈ 7.81 µM). Moreover, in test [6] (setting [12]), the “MIC50 (μg/mL) MRSA” value is 4.2 ± 1.2 µg/mL (≈ 6.19 µM). Moreover, in test [8] (setting [12]), the “MIC50 (μg/mL) VREF” value is 9.5 ± 3.0 µg/mL (≈ 14 µM). The “potency relative to compound 7” value in test [9] is “at least 3 ×”.

`Oc1cc(Cl)c2cc1C/C=C(/Cl)Cc1cc(O)c(c(O)c1)Oc1cc(c(O)cc1Br)C/C=C(/Cl)Cc1cc(O)c(c(O)c1)O2` [Compound 7, chrysophaentin 7]: the “Agar disk diffusion (μg/disk) S. aureus” value in [1] is “NA (NA, no zone of inhibition observed at 25 μg/disk)”. The “Agar disk diffusion (μg/disk) MRSA” value in test [2] is recorded as “NA (NA, no zone of inhibition observed at 25 μg/disk)”. Moreover, in test [3], the “Agar disk diffusion (μg/disk) E. faecium” value was “NA (NA, no zone of inhibition observed at 25 μg/disk)”. Also, in test [4], the “Agar disk diffusion (μg/disk) VREF” value is given as “NA (NA, no zone of inhibition observed at 25 μg/disk)”. The MIC50 in test [5] (setting [13]) was 16.6 ± 5.3 µg/mL (≈ 23 µM); in test [6] it was 12.3 ± 3.1 µg/mL (≈ 17 µM); in test [7] it was above 50 µg/mL; in test [8], 24.6 ± 7.3 µg/mL (≈ 34 µM).

`Oc1cc(Cl)c2cc1C/C=C(/Cl)Cc1cc(O)c(c(O)c1Br)Oc1cc(c(O)cc1Cl)C/C=C(/Cl)Cc1cc(O)c(c(O)c1)O2` [Compound 8, chrysophaentin 8]: the MIC50 in test [5] (setting [11]) is 4 to 6 µg/mL (≈ 5.28 to 7.92 µM); in test [6] (setting [12]) it was 4 to 6 µg/mL (≈ 5.28 to 7.92 µM); in [7] it was above 25 µg/mL; in test [8] (setting [12]) it was around 9.5 µg/mL (≈ 12.5 µM).

As for `COC(=O)Nc1nc2ccc(C(=O)c3cccs3)cc2[nH]1` [nocodazole, reference compound], the “tubulin polymerization velocity v” value in test [10] is 12 min⁻¹.

On to `CC(=O)O[C@H]1C(=O)[C@@]2(C)[C@H]([C@H](OC(=O)c3ccccc3)[C@]3(O)C[C@H](OC(=O)[C@H](O)[C@@H](NC(=O)c4ccccc4)c4ccccc4)C(C)=C1C3(C)C)[C@]1(OC(C)=O)CO[C@@H]1C[C@@H]2O` [paclitaxel, reference compound], for which, in test [10], the “tubulin polymerization velocity v” value amounted to 80 min⁻¹.
